Results reported in the supplement of paper PMC10307832.

Assays:
Assay in all cases: relative viability (nuclei count vs DMSO), 5 days (fraction); higher = more cells survive
[1] = test system: ABC-1
How it was run: (§1)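 A single step with final 0.05% Triton X-100, 1% formaldehyde and 1 ug/ml Hoechst fixed the cells and stained nuclei 5 days after treatment. Lung cancer cell lines in 1536-well plates had been treated by pin tool the day after seeding with one drug alone or a fixed anchor-drug dose plus five library-drug doses (not always all listed) in √10 steps, and nuclei were counted on 4× images. Relative viability is the ratio of nuclei in treated wells to nuclei in vehicle wells, taken as the median of duplicate plates.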

[2] = test system: CAL-12T
How it was run: as §1

[3] = test system: COR-L 105
How it was run: as §1

[4] = test system: EMC-BAC-2
How it was run: as §1

[5] = test system: EPLC-272H
How it was run: as §1

[6] = test system: HCC-15
How it was run: as §1

[7] = test system: HCC-78
How it was run: as §1

[8] = test system: HOP-62
How it was run: as §1

[9] = test system: LXF-289
How it was run: as §1

[10] = test system: NCI-H1666
How it was run: as §1

[11] = test system: NCI-H1755
How it was run: as §1

[12] = test system: NCI-H1915
How it was run: as §1

[13] = test system: NCI-H1975
How it was run: as §1

[14] = test system: NCI-H2023
How it was run: as §1

[15] = test system: NCI-H2085
How it was run: as §1

[16] = test system: NCI-H2126
How it was run: as §1

[17] = test system: NCI-H3122
How it was run: as §1

[18] = test system: NCI-H322M
How it was run: as §1

[19] = test system: NCI-H358
How it was run: as §1

[20] = test system: UMC-11
How it was run: as §1

**Q.** `COc1nc(C)cnc1NS(=O)(=O)c1cccnc1-c1ccc(-c2nnco2)cc1` [Zibotentan] + CS(=O)(=O)CCNCc1ccc(-c2ccc3ncnc(Nc4ccc(OCc5cccc(F)c5)c(Cl)c4)c3c2)o1 [Lapatinib] (partner 2 µM) was tested. Which relative viability ([1]; first compound 0.08 µM) did it give?
**A.** 1.28

**Q.** What about the relative viability ([1]; first compound 0.253 µM) of the same compound?
**A.** 0.885

**Q.** What about the relative viability ([1]; first compound 0.8 µM) of the same compound?
**A.** 0.971

**Q.** And the relative viability ([1]; first compound 2.53 µM)?
**A.** 1.28

**Q.** What about the relative viability ([2]; first compound 0.08 µM) of the same compound?
**A.** 0.606

**Q.** And the relative viability ([2]; first compound 0.8 µM)?
**A.** 0.55

**Q.** What about the relative viability ([2]; first compound 2.53 µM) of the same compound?
**A.** 0.652

**Q.** And the relative viability ([3]; first compound 0.08 µM)?
**A.** 0.394

**Q.** What about the relative viability ([3]; first compound 0.253 µM) of the same compound?
**A.** 0.35

**Q.** What about the relative viability ([3]; first compound 0.8 µM) of the same compound?
**A.** 0.394

**Q.** And the relative viability ([3]; first compound 2.53 µM)?
**A.** 0.4

**Q.** And the relative viability ([4]; first compound 0.08 µM)?
**A.** 0.958

**Q.** What about the relative viability ([4]; first compound 0.253 µM) of the same compound?
**A.** 0.805

**Q.** What about the relative viability ([4]; first compound 0.8 µM) of the same compound?
**A.** 0.873

**Q.** And the relative viability ([4]; first compound 2.53 µM)?
**A.** 0.858

**Q.** What about the relative viability ([5]; first compound 0.08 µM) of the same compound?
**A.** 0.982

**Q.** And the relative viability ([5]; first compound 0.253 µM)?
**A.** 0.894

**Q.** And the relative viability ([5]; first compound 0.8 µM)?
**A.** 0.919

**Q.** And the relative viability ([5]; first compound 2.53 µM)?
**A.** 0.869

**Q.** What about the relative viability ([6]; first compound 0.08 µM) of the same compound?
**A.** 0.954

**Q.** What about the relative viability ([6]; first compound 0.253 µM) of the same compound?
**A.** 0.858

**Q.** And the relative viability ([6]; first compound 0.8 µM)?
**A.** 0.951

**Q.** What about the relative viability ([6]; first compound 2.53 µM) of the same compound?
**A.** 0.828

**Q.** And the relative viability ([7]; first compound 0.08 µM)?
**A.** 0.844

**Q.** And the relative viability ([7]; first compound 0.253 µM)?
**A.** 0.701

**Q.** And the relative viability ([7]; first compound 0.8 µM)?
**A.** 0.847

**Q.** What about the relative viability ([7]; first compound 2.53 µM) of the same compound?
**A.** 0.788

**Q.** And the relative viability ([8]; first compound 0.08 µM)?
**A.** 0.957

**Q.** What about the relative viability ([8]; first compound 0.253 µM) of the same compound?
**A.** 1.12

**Q.** And the relative viability ([8]; first compound 0.8 µM)?
**A.** 1.22

**Q.** And the relative viability ([8]; first compound 2.53 µM)?
**A.** 1.25

**Q.** What about the relative viability ([9]; first compound 0.08 µM) of the same compound?
**A.** 0.873

**Q.** And the relative viability ([9]; first compound 0.253 µM)?
**A.** 0.886

**Q.** What about the relative viability ([9]; first compound 0.8 µM) of the same compound?
**A.** 0.93

**Q.** And the relative viability ([9]; first compound 2.53 µM)?
**A.** 0.878

**Q.** What about the relative viability ([10]; first compound 0.08 µM) of the same compound?
**A.** 0.63

**Q.** And the relative viability ([10]; first compound 0.253 µM)?
**A.** 0.435

**Q.** What about the relative viability ([10]; first compound 0.8 µM) of the same compound?
**A.** 0.495

**Q.** And the relative viability ([10]; first compound 2.53 µM)?
**A.** 0.688

**Q.** What about the relative viability ([11]; first compound 0.08 µM) of the same compound?
**A.** 1.06

**Q.** What about the relative viability ([11]; first compound 0.253 µM) of the same compound?
**A.** 0.988

**Q.** And the relative viability ([11]; first compound 0.8 µM)?
**A.** 1.08

**Q.** And the relative viability ([11]; first compound 2.53 µM)?
**A.** 1.05

**Q.** What about the relative viability ([12]; first compound 0.08 µM) of the same compound?
**A.** 1.03

**Q.** And the relative viability ([12]; first compound 0.253 µM)?
**A.** 0.934

**Q.** What about the relative viability ([12]; first compound 0.8 µM) of the same compound?
**A.** 0.963

**Q.** What about the relative viability ([12]; first compound 2.53 µM) of the same compound?
**A.** 1.03

**Q.** And the relative viability ([13]; first compound 0.08 µM)?
**A.** 0.837

**Q.** What about the relative viability ([13]; first compound 0.253 µM) of the same compound?
**A.** 0.8

**Q.** And the relative viability ([13]; first compound 0.8 µM)?
**A.** 0.781

**Q.** What about the relative viability ([13]; first compound 2.53 µM) of the same compound?
**A.** 0.884

**Q.** And the relative viability ([14]; first compound 0.08 µM)?
**A.** 0.87

**Q.** What about the relative viability ([14]; first compound 0.253 µM) of the same compound?
**A.** 0.4

**Q.** What about the relative viability ([14]; first compound 0.8 µM) of the same compound?
**A.** 0.651

**Q.** What about the relative viability ([14]; first compound 2.53 µM) of the same compound?
**A.** 0.846

**Q.** And the relative viability ([15]; first compound 0.08 µM)?
**A.** 0.796

**Q.** What about the relative viability ([15]; first compound 0.253 µM) of the same compound?
**A.** 0.837

**Q.** And the relative viability ([15]; first compound 0.8 µM)?
**A.** 0.764

**Q.** What about the relative viability ([15]; first compound 2.53 µM) of the same compound?
**A.** 0.95

**Q.** And the relative viability ([16]; first compound 0.08 µM)?
**A.** 0.79

**Q.** And the relative viability ([16]; first compound 0.253 µM)?
**A.** 0.724

**Q.** What about the relative viability ([16]; first compound 0.8 µM) of the same compound?
**A.** 0.662

**Q.** And the relative viability ([16]; first compound 2.53 µM)?
**A.** 0.779

**Q.** And the relative viability ([17]; first compound 0.08 µM)?
**A.** 0.99

**Q.** And the relative viability ([17]; first compound 0.253 µM)?
**A.** 1.03

**Q.** What about the relative viability ([17]; first compound 0.8 µM) of the same compound?
**A.** 1.03

**Q.** What about the relative viability ([17]; first compound 2.53 µM) of the same compound?
**A.** 1.01

**Q.** And the relative viability ([18]; first compound 0.08 µM)?
**A.** 0.553

**Q.** What about the relative viability ([18]; first compound 0.253 µM) of the same compound?
**A.** 0.621

**Q.** What about the relative viability ([18]; first compound 0.8 µM) of the same compound?
**A.** 0.582

**Q.** What about the relative viability ([18]; first compound 2.53 µM) of the same compound?
**A.** 0.624

**Q.** And the relative viability ([19]; first compound 0.08 µM)?
**A.** 0.453

**Q.** What about the relative viability ([19]; first compound 0.8 µM) of the same compound?
**A.** 0.469

**Q.** What about the relative viability ([19]; first compound 2.53 µM) of the same compound?
**A.** 0.503

**Q.** What about the relative viability ([20]; first compound 0.08 µM) of the same compound?
**A.** 0.919

**Q.** And the relative viability ([20]; first compound 0.253 µM)?
**A.** 0.86

**Q.** What about the relative viability ([20]; first compound 0.8 µM) of the same compound?
**A.** 0.967

**Q.** What about the relative viability ([20]; first compound 2.53 µM) of the same compound?
**A.** 1.06
